Patent US7772210B2, “Cystitis treatment with high dose chondroitin sulfate” (Stellar Pharmaceuticals Inc., priority 2004, dated 2010)

Experiments:
[1] = tested on: patients diagnosed with cystitis; conditions: 80 mgs and up to 200 mgs as a 40 mL instillation; cited from earlier work
[2] = Solubility of CS in water; format: physicochemical; conditions: room temperature, sterile, distilled water
Excerpt: In accordance with the present invention, the unit dose of CS administered to the patient is at least 250 mgs. More desirably, the unit dose of CS is at least 300 mgs. Preferably, the unit dose is at least 350 mgs. More preferably, the unit dose is at least 400 mgs. The upper end of the acceptable unit dose is capped, in theory, only by the solubility of the given type of CS in the chosen aqueous vehicle, and by the volume of that vehicle used in therapy. At room temperature and in sterile, distilled water, the solubility of CS approaches 50%. Thus, the upper limit of the CS unit dose can be 500 mgs/mL of vehicle. In accordance with the present invention, the unit dose of CS is desirably formulated in a solution volume that is sufficient to expose the bladder surface to be treated, and is at least tolerable and more desirably comfortable for the patient. The upper limit for such volumes lies below the volume causing hydrodistention, which is about 250 mL in some patients. For adult patients, solution volumes are suitably from about 5 mL or 10 mL up to about 100 mL, e.g. up to about 75 mL, and preferably up to about 50 mL. In a specific embodiment of the invention, a solution volume of about 40 mL is utilized. Accordingly, the upper limit of the unit dose of CS administrable to the patient at this volume can approach 20,000 mgs.

In the case of chondroitin sulfate [CS], the “relief of symptoms including frequency, pain and urgency” value [1] is listed as “provided relief from at least one symptom” and the solubility [2] is listed as “about 50%”.
